In patent publication US12465594B2 (Brown University, priority 2018, dated 2025):
Entries after “also recorded” stand apart in the source; their conditions may differ.

Tests used:
[1] = molecular target: T1, 5-HT2A (Homo sapiens, UniProt P28223); assay: PDSP binding assay; details: 10 μM, quadruplicate, cloned target
T1 construct: NIMH Psychoactive Drug Screening Program (PDSP)

[2] = Brain homogenate binding (equilibrium dialysis); assay type: in vitro ADME; details: rat brain homogenate
Source text: Both compounds were then profiled for their plasma protein binding (PPB) and brain homogenate binding (BHB) to predict the unbound drug fraction in the plasma and brain respectively.

[3] = system: BZP Rat Brain Site; assay: PDSP binding assay; details: 10 μM, quadruplicate
[4] = molecular target: Alpha2C (Homo sapiens, UniProt P18825); assay: PDSP binding assay; details: 10 μM, quadruplicate, cloned target
Alpha2C, sequence (P18825 whole entry): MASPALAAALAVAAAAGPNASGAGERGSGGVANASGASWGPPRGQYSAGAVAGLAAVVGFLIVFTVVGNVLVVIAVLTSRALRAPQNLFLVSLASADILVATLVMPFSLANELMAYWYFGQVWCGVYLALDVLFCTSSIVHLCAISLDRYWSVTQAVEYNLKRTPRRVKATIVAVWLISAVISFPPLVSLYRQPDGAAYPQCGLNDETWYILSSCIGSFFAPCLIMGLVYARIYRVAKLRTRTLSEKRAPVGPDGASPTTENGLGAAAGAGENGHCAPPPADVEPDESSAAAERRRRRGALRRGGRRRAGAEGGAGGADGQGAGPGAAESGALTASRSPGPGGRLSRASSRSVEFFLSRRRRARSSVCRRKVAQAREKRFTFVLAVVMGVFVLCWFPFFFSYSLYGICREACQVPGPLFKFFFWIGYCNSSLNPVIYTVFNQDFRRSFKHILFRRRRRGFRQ

[5] = molecular target: CRF2 (Homo sapiens, UniProt Q13324); assay: CRF2 Ca2+ assay (absence of CRFBP(10 kD)); details: presence of EC80 CRF
[6] = molecular target: T2, CRFBP-CRF2 complex (Homo sapiens, UniProt P24387+Q13324); assay: CRFBP-CRF2 Ca2+ assay (FDSS7000; dose-response, Schild analysis); assay type: cell-based; details: for CRF maximal response with increasing concentrations of compound / Mechanism of antagonism relative to CRF (Schild analysis): 1.11, 3.33, 10 μM compound; for Antagonism of the CRFBP-CRF2 response: dose-response in presence of EC80 CRF
T2 construct: FLAG (N); HA (N); expressed in transfected cells
T2 sequence (P24387+Q13324 with tags, fused parts or gaps): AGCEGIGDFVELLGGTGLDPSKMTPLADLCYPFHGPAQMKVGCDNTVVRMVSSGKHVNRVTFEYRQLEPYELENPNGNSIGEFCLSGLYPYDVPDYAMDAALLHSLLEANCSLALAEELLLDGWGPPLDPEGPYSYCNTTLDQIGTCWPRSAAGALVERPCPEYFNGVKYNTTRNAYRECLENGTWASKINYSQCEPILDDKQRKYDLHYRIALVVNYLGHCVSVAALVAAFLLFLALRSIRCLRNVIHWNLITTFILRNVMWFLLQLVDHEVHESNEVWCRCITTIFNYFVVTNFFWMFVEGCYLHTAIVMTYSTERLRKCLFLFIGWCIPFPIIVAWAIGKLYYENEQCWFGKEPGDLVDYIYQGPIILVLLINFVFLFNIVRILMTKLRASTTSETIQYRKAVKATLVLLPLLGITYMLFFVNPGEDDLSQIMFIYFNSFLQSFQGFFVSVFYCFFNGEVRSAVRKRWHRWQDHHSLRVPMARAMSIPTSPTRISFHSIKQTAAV
Procedure: CRFBP-CRF2 HEK293 cells (1,000 cells/6 μL per well) were plated in 1536-well black walled clear-bottom Poly-D-Lysine coated plates (Corning) in Assay Media (Dulbecco's Modified Eagle Medium (DMEM) (1×), phenol red free, 1% Defined Fetal Bovine Serum (FBS) (Hyclone), 1×Penicillin/Streptomycin (P/S), and 1×L-Glutamine) using a Multidrop Combi (Thermo). Cell plates were spun at 500 rpm for 1 minute in a centrifuge, covered with Kalypsys lids, and incubated overnight at 37° C. in the presence of 5% CO2. The following day, 2 μL per well of FLIPR Calcium 4 Dye (Molecular Devices), prepared in Assay Buffer (1×Hanks' balanced salt solution, 20 mM HEPES, 0.1% Bovine Serum Albumin [Sigma], and 2.5 mM probenecid [Sigma], pH 7.4) was added to each well of the assay plate at 0.5×according to the Manufacturer's Instructions using the Multidrop Combi (Thermo) dispenser and the cells were incubated in dye for 1 hour 37° C. in the presence of 5% CO2. Reagents are from Invitrogen unless otherwise stated.
Calcium flux was measured using a Functional Drug Screening System 7000 (FDSS7000; Hamamatsu, Tokyo, Japan). Baseline readings were taken (9 images at 1 Hz; excitation, 470±20 nm; emission, 540±30 nm), and then test compounds (approximately 53 nL) were added at the 10 second time-point using the FDSS's integrated 1536 well pin-tool from source library plates (Corning) containing 2 mM test compound stocks in 100% DMSO. […] Agonist “Hits” were selected by comparing the amplitude of the responses at the time of test compound addition to the CRF maximal response on each plate.
For confirmation screening, the CRFBP-CRF2 Ca^2+ assay was performed in the identical as the primary screen with the following exceptions. For each test compound, eight assay plates were prepared, each of which received a different concentration of test compound by pin-tool in the FDSS7000 Ca^2+ assay. For the agonist confirmation screening, compounds were tested at 53.0 μM, 26.5 μM, 13.3 μM, 6.63 μM, 3.31 μM, 1.66 μM, 0.828 μM, and 0.414 μM. For the antagonist confirmation screening, compounds were tested at 47.1 μM, 23.6 μM, 11.8 μM, 5.89 μM, 2.94 μM, 1.47 μM, 0.736 μM, and 0.368 μM.

[7] = molecular target: T3, 5-HT6 (Homo sapiens, UniProt P50406); assay: PDSP binding assay; details: 10 μM, quadruplicate, cloned target
T3 construct: NIMH Psychoactive Drug Screening Program (PDSP)
T3 sequence (P50406 whole entry, species assumed): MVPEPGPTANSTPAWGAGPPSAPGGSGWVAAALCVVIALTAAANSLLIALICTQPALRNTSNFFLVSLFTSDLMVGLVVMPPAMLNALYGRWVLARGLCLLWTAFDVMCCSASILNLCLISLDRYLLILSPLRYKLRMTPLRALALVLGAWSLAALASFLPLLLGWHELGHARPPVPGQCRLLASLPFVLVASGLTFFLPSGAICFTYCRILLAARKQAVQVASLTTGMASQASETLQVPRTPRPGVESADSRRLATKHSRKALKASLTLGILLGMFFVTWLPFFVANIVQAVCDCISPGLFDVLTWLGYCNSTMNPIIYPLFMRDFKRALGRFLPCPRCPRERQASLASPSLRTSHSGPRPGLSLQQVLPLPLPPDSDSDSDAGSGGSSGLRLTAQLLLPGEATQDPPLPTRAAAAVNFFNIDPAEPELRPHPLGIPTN

T1 sequence (P28223 whole entry, species assumed): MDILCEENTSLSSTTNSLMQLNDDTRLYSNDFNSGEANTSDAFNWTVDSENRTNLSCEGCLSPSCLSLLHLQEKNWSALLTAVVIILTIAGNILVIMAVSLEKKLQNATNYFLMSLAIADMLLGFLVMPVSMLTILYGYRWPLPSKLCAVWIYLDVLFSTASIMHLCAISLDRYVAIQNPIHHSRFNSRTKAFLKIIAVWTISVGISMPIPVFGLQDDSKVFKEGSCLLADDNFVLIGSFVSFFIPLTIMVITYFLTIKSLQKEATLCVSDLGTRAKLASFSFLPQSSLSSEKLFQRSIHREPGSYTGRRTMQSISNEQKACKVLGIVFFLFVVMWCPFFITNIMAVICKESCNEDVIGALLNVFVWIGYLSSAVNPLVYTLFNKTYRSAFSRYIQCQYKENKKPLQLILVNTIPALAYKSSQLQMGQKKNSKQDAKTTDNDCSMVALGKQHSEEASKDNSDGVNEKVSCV

Compound | Activity at 5-HT2A (binding assay) [1] [%] | Brain homogenate binding, free [2] [% free] | Activity at BZP Rat Brain Site (binding assay) [3] [%] | Activity at Alpha2C (binding assay) [4] [%] | Activity toward CRF2 in the absence of CRFBP(10 kD) [5] | CRF maximal response with increasing concentrations of compound [6] | Mechanism of antagonism relative to CRF (Schild analysis) [6] | Mechanism of antagonism relative to CRF (Schild analysis) ([6]; listed as MLS-0046181) | Antagonism of the CRFBP-CRF2 response [6] | Activity at 5-HT6 (binding assay) [7] [%]
Brc1ccccc1-c1nnc(CSc2nnnn2-c2ccccc2)o1 [MLS-0046818] | 5 | 2.3 | 35 | 8 | inactive | decreased | noncompetitively antagonize CRF responses | noncompetitive interaction | only inhibit the CRFBP-CRF2 response | 35
CC(C)Cn1c(SCC(=O)N2CCc3ccccc3C2)nc2cc(Cl)ccc2c1=O [MLS-0219419] | −1 | 0.0 | 25 | −5 |  | decreased | noncompetitive interaction; also recorded: noncompetitively antagonize CRF responses |  | only inhibit the CRFBP-CRF2 response | 2
